Tests used:
AIA rats [1] = test: Plasma metabolomics by LC-MS/MS in AIA rats; assay type: in vivo, Sprague-Dawley (SD) rats
Experimental: The plasma sample (200 μL) was thawed on ice for 5 min prior to sample preparation and was mixed with 200 μL of 10 mM N-ethylmaleimide (NEM) in PBS buffer solution and 1000 μL of methanol containing internal standard (I.S.) Phe-d5 in 10 ng/ml. This mixture was incubated at −20° C. for 20 min, and then centrifuged at 12000 rpm for 10 min at 4° C. The supernatant was completely dried under nitrogen flow (Pressure Blowing Concentrator, Tokyo Rikakika, Tokyo, Japan) and reconstituted with distilled water.
LC-MS/MS analysis was performed on A Waters ACQUITY UPLC coupled with a 4000 Q-TRAP mass spectrometer. Chromatographic separation was carried on a Waters X Bridge™ BEH C18 analytical column (2.5 μm, 3.0×100 mm; Waters, Torrance, Calif.) with a mobile phase composed of 0.1% formic acid water (solvent A) and methanol (solvent B) which was running in a gradient program: 0-3.0 min (0%-1% B); 3.0-10.0 min (1-3% B); 10.0-14.0 min (3-50% B); 14.0-18.0 min (50-95% B); 18.0-22.0 min (95-0% B); followed by a 3-min re-equilibration step. The injection volume was 10 μl at 4° C. and flow rate was 0.6 ml/min. Electrospray (ESI) source were used in both positive and negative ion mode. […]
The normalized data were exported and further processed by PCA and PLS-DA using a multivariate analysis package SIMCA-P software (Umea, Sweden). Model quality was evaluated based on the relevant values of R^2 and Q^2. […]

[2] = system: key enzymes involved in lipid metabolism in liver; test: Real-time PCR and Western blot of lipid metabolism enzymes in liver of AIA rats; assay type: in vivo, Sprague-Dawley (SD) rats; details: AIA rats liver
Experimental: Total RNA was isolated from the frozen liver of the AIA model using TRIzol® Reagent (Life technology, USA). mRNA was purified by binding to poly(dT) magnetic beads using Dynabeads® mRNA DIRECT™ Kit (Life technology, Norway) and reverse transcribed using SuperScript® III reverse transcriptase (Invitrogen, California, USA) as described by the manufacturer. Quantitative real-time PCR was performed using SYBR Green (Sigma-Aldrich, Louis, USA) on the ViiA™ 7 Real-Time PCR System (Applied Biosystems, FosterCity, USA). Quantitative RT-PCR analysis was performed using SYBR Green reagents and ViiA™ 7 Real-Time PCR System. Gene expression levels were calculated from cycle threshold (Ct) values and normalized with control gene GAPDH.
Liver tissue homogenates of AIA and MCD animal models were lysed in RIPA buffer (50 mM pH 7.4 Tris, 150 mM NaCl, 1% Triton X-100, 1% sodium deoxycholate, 0.1% SDS, sodium orthovanadate, sodium fluoride and EDTA) containing protease inhibitor cocktails (Roche Life Science, USA). Protein concentration was determined using the BCA protein assay kit (BIO-RAD, USA). Equal amounts of total protein were resolved using SDS-PAGE and transferred onto PVDF membranes (Millipore, Darmstadt, Germany). After incubation in a blocking solution containing with 5% (w/v) skim milk (Nestle Carnation, New Zealand) in TBST buffer (10 mM tris-buffered saline and 0.1% Tween20) for 1 h at room temperature and incubated with primary antibodies overnight at 4° C. The membranes were washed three times with 1×TBST solutions and incubated with the appropriate secondary antibodies at room temperature for 45 min, and subsequently visualized with an enhanced chemiluminescence detection kit (SuperSignal™ West Pico Chemiluminescent Substrate, Thermo Scientific, USA). β-actin was used as the loading control for the experimental data analysis.

AIA rats [3] = details: AIA rats; MTX alone; versus vehicle-treated AIA rats
AIA rats [4] = test: Assessment of liver abnormality and lipid profile in AIA model; assay type: in vivo, Sprague-Dawley (SD) rats
Experimental: Serum ALT, AST, ALP, GGT and total bilirubin were measured by automatic biochemical analyzer (Toshiba Corporation, Tokyo, Japan). Lipids profile including TG, TC, HDL-C, LDL-C/vLDL-C and free fatty acids were measured in the serum. After animals were sacrificed, tissues of liver were fixed in 10% formalin solution, cleared in xylene, embedded in paraffin blocks from which 5 micron-thick sections were obtained. Sections were stained with H&E dye and examined for pathological changes under light microscope by a pathologist blind to the specimens.

AIA rats [5] = test: Radiological and histopathological examination of hind paws / ankle joints of AIA rats; assay type: in vivo, Sprague-Dawley (SD) rats
Experimental: Disease severity and progression were evaluated by measurements of both hind paw volumes with a plethysmometer chamber (Yiyan technology, Jinan, China) and body weight with a 0.1 g precision balance (Sartorius AG, Göttingen, Germany) every two or three days after arthritis induction. For evaluation the arthritic scoring, the lesions of four paws of each rat (i.e., the arthritic signs) were graded by two separate investigators with a semi-quantitative scale: 0 (normal), 4-8 (mild changes), 8-12 (moderate changes), and 12-16 (severe changes) (van Eden W., et. al., J. E. Coligan, Editor. 2001, John Wiley: New York. p. 1-11). Erythrocyte sedimentation rate (ESR) was determined with ICSH (International Council for Standardization in Hematology) selected method with little modifications at day 42. Briefly, 120 μl of blood sample was taken directly and put into 30 μl of 0.109 mol/L sodium citrate, mixed well, and then transferred into a 1.0 mm×100 mm capillary tube (West China Medical University, ChengDu, China). The tubes were held obliquely at an angle of […] and the erythrocyte sedimentation rate was recorded at 15 min. The cytokines levels including IL-1β, TNF-α, IL-17, IL-33, MMP-9, TIMP-1 and PGE2 in serum were measured using commercially available ELISA kits according to the manufacturers instructions. At the end of the experiments, rat knee images were measured (mean of three readings per knee, Meinaite digital calliper, ShangHai, China) using a IVIS Lumina XRMS Series (PerkinElmer, America) (Esser, R. E., et al., Arthritis Rheum, 1995, 38(1): p. 129-38).
For histopathological assessment, arthritic paws were collected on day 42 after X-ray check, fixed with 10% phosphate buffered saline (PBS) buffered formalin, and decalcified for 3 days in formic acid. Sections from paraffin-embedded tissue were stained with hematoxylin and eosin (H&E). The obtained plasma was stored in −70° C. for metabolomic studies. The relative organ weight ratios (such as liver index, spleen index, kidney index, lung index) were calculated by dividing the weight of each organ with the body weight.

GGT serum level (AIA rats [4]; methotrexate alone, 42 days): significant increase
Compound: CN(Cc1cnc2nc(N)nc(N)c2n1)c1ccc(C(=O)N[C@@H](CCC(=O)O)C(=O)O)cc1 [MTX, methotrexate, reference compound]
metabolic network (plasma metabolites) (AIA rats [1]): effectively repair the metabolic network
expression of aP2 in the liver [2]: reduced
mRNA and/or protein expression of LPL, CYP7A1, and SREBP1 in liver [2]: greatly repressed
overexpression of SREBP1 [2]: not modulated
increased mRNA levels of hepatic lipogenesis genes (SREBP1, LXR, FXR) ([2]; real-time PCR): attenuated
changes of key lipogenic enzyme in both gene and protein levels ([2]; real-time PCR and Western blot): ameliorated changes
changes in arthritis score (AIA rats [3]): significantly (p<0.001) ameliorated
changes in paw volume (AIA rats [3]): significantly (p<0.001) ameliorated
histopathological assessment of liver tissue (AIA rats [4]; H&E liver sections): congested portal tract and mild fatty changes with lipid drop lets
dyslipidemia (serum lipid profile) (AIA rats [4]; MTX): successfully improved
ALT serum level (AIA rats [4]; methotrexate alone, 42 days): significant increase
cartilage and joint destruction of the arthritic joints (radiographs) (AIA rats [5]; MTX, day 42): ameliorated
infiltration of inflammatory cells, synovial hyperplasia (AIA rats [5]; ankle joint sections, H&E): diminished
histological grade of representative ankle joint sections (AIA rats [5]; day 42, H&E, FIG. 2C (MTX; Silybin 200 mg/kg), vehicle-treated AIA grade 2/3): 0
